In brackets after ≈: the same amount, converted by molar mass.
Tests used:
gram-negative bacteria = assay: Antibacterial (growth-inhibitory) activity, gram-negative bacteria; assay type: cell-based; conditions: in words
Excerpt: (§1) Calcd.: C:44.91, H:4.47, N:20.75, Found: C:44.78, H:4.51, N:20.89, Molecular formula: C10 H12 N4 O5 Molecular weight: 268. 2'-Deoxyoxanosine in accordance with the present invention had the following antibacterial spectrum on 0.5% peptone agar.

[1] = Stability under basic conditions; assay type: physicochemical; conditions: in words
[2] = system: Staphylococcus aureus FDA209P; assay: Antibacterial spectrum (MIC) on 0.5% peptone agar; assay type: cell-based
Excerpt: as §1
(§2) Antibacterial spectrum of 2'-deoxyoxanosine

[3] = system: Shigella flexneri 4bJS11811; assay: Antibacterial spectrum (MIC) on 0.5% peptone agar; assay type: cell-based
Excerpt: as §1, §2

[4] = system: Bacillus subtilis NRRLB-558; assay: Antibacterial spectrum (MIC) on 0.5% peptone agar; assay type: cell-based; conditions: NRRLB558
Excerpt: as §1, §2

Sarcina luteus PCI1001 = assay: Antibacterial spectrum (MIC) on 0.5% peptone agar; assay type: cell-based
Excerpt: as §1, §2

Escherichia coli NIHJ = assay: Antibacterial spectrum (MIC) on 0.5% peptone agar; assay type: cell-based
Excerpt: as §1, §2

Microcuccus flavus FDA16 = assay: Antibacterial spectrum (MIC) on 0.5% peptone agar; assay type: cell-based
Excerpt: as §1, §2

Proteus rettgeri GN311 = assay: Antibacterial spectrum (MIC) on 0.5% peptone agar; assay type: cell-based; conditions: Providencia rettgeri
Excerpt: as §1, §2

[5] = system: Shigella dysenteriae JS11910; assay: Antibacterial spectrum (MIC) on 0.5% peptone agar; assay type: cell-based
Excerpt: as §1, §2

Escherichia coli ML1628 = assay: Antibacterial spectrum (MIC) on 0.5% peptone agar; assay type: cell-based; conditions: Escherichia coli ML1628 (multiple resistant strain)
Excerpt: as §1, §2

Candida albicans 3147 = assay: Antibacterial spectrum (MIC) on 0.5% peptone agar; assay type: cell-based
Excerpt: as §1, §2

Escherichia coli K-12 = assay: Antibacterial spectrum (MIC) on 0.5% peptone agar; assay type: cell-based; conditions: K12
Excerpt: as §1, §2

[6] = system: Pseudomonas aeruginosa A3; assay: Antibacterial spectrum (MIC) on 0.5% peptone agar; assay type: cell-based
Excerpt: as §1, §2

Serratia marcescens = assay: Antibacterial spectrum (MIC) on 0.5% peptone agar; assay type: cell-based
Excerpt: as §1, §2

[7] = system: Proteus mirabilis IFM OM-9; assay: Antibacterial spectrum (MIC) on 0.5% peptone agar; assay type: cell-based; conditions: IFMOM9
Excerpt: as §1, §2

Proteus rettgeri GN466 = assay: Antibacterial spectrum (MIC) on 0.5% peptone agar; assay type: cell-based; conditions: Providencia rettgeri
Excerpt: as §1, §2

[8] = system: Salmonella enteritidis 1891; assay: Antibacterial spectrum (MIC) on 0.5% peptone agar; assay type: cell-based; conditions: Salmonella enterica
Excerpt: as §1, §2

[9] = system: Corynebacterium bovis 1810; assay: Antibacterial spectrum (MIC) on 0.5% peptone agar; assay type: cell-based
Excerpt: as §1, §2

Mycobacterium 607 = assay: Antibacterial spectrum (MIC) on 0.5% peptone agar; assay type: cell-based
Excerpt: as §1, §2

Salmonella typhi T-63 = assay: Antibacterial spectrum (MIC) on 0.5% peptone agar; assay type: cell-based; conditions: Salmonella enterica
Excerpt: as §1, §2

[10] = system: Staphylococcus aureus Simth; assay: Antibacterial spectrum (MIC) on 0.5% peptone agar; assay type: cell-based
Excerpt: as §1, §2

[11] = system: Klebsiella pneumoniae PCI602; assay: Antibacterial spectrum (MIC) on 0.5% peptone agar; assay type: cell-based
Excerpt: as §1, §2

Proteus vulgaris OX19 = assay: Antibacterial spectrum (MIC) on 0.5% peptone agar; assay type: cell-based
Excerpt: as §1, §2

Shigella sonnei JS11746 = assay: Antibacterial spectrum (MIC) on 0.5% peptone agar; assay type: cell-based
Excerpt: as §1, §2

Bacillus subtilis PCI219 = assay: Antibacterial spectrum (MIC) on 0.5% peptone agar; assay type: cell-based
Excerpt: as §1, §2

leukemia L-1210 cells = assay: Cytotoxicity, growth inhibition of leukemia L-1210 cells; assay type: cell-based
gram-positive bacteria = assay: Antibacterial (growth-inhibitory) activity, gram-positive bacteria; assay type: cell-based; conditions: in words
Excerpt: as §1

mice = assay: Acute toxicity (LD50) in mice; assay type: in vivo; conditions: i.v., in words
[12] = Acute toxicity (LD50) in mice; assay type: in vivo; conditions: mouse, in vivo, iv

Nc1nc2c(ncn2[C@H]2C[C@H](O)[C@@H](CO)O2)c(=O)o1 [2'-deoxyoxanosine]
antibacterial / growth-inhibitory activity (gram-negative bacteria): relatively high growth-inhibitory activity
antibacterial / growth-inhibitory activity (gram-negative bacteria; listed as 2'-Deoxyoxanosine): excellent antibacterial activity against gram-negative bacteria
stability [1]: relatively unstable under basic conditions
MIC [2]: > 100 µg/mL
MIC [3]: 1.56 µg/mL (≈ 5.82 µM)
MIC [4]: > 100 µg/mL
MIC (Sarcina luteus PCI1001): > 100 µg/mL
MIC (Escherichia coli NIHJ): 12.5 µg/mL (≈ 46.6 µM)
MIC (Microcuccus flavus FDA16): > 100 µg/mL
MIC (Proteus rettgeri GN311): 12.5 µg/mL (≈ 46.6 µM)
MIC [5]: 1.56 µg/mL (≈ 5.82 µM)
MIC (Escherichia coli ML1628): 3.12 µg/mL (≈ 11.6 µM)
MIC (Candida albicans 3147): > 100 µg/mL
MIC (Escherichia coli K-12): 0.78 µg/mL (≈ 2.91 µM)
MIC [6]: > 100 µg/mL
MIC (Serratia marcescens): > 100 µg/mL
MIC [7]: 6.25 µg/mL (≈ 23.3 µM)
MIC (Proteus rettgeri GN466): 25 µg/mL (≈ 93.2 µM)
MIC [8]: > 100 µg/mL
MIC [9]: > 100 µg/mL
MIC (Mycobacterium 607): > 100 µg/mL
MIC (Salmonella typhi T-63): > 100 µg/mL
MIC [10]: > 100 µg/mL
MIC [11]: > 100 µg/mL
MIC (Proteus vulgaris OX19): < 0.2 µg/mL
MIC (Shigella sonnei JS11746): 0.78 µg/mL (≈ 2.91 µM)
MIC (Bacillus subtilis PCI219): > 100 µg/mL
IC50 (leukemia L-1210 cells; Mus musculus, L1210, read-out: IC50, the concentration inhibiting growth in 50% of leukemia L-1210 cells): 0.15 µg/mL (≈ 0.559 µM)
inhibition of growth of leukemia L-1210 cells (leukemia L-1210 cells; in words): exhibited the action to inhibit the growth of leukemia L-1210 cells
growth-inhibitory activity (gram-positive bacteria): did not show this activity against gram-positive bacteria
acute toxicity compared with known antibiotics similar in structure to nucleic acids (mice): lower toxicity than that of various known antibiotics similar in structure to nucleic acids
LD50 [12]: 200 mg/kg

— patent US4530998A, “2'-Deoxyoxanosine” (Zaidan Hojin Biseibutsu Kagaku KenkyuKai, priority 1983, dated 1985)
